From patent US20230210797A1, “PREVENTING AND TREATING HYPOGLYCEMIA” (DIAMYD MEDICAL AB, priority 2019, published 2023)

Experiments:
[1] = Time spent below, within and above normal blood glucose range (4-10 mmol/L), FreeStyle Libre Pro FGM; format: in vivo, human; details: for Time above range, Mean / Time above range, Median / Time below range, Mean / Time below range, Median / Time within range, Mean / Time within range, Median: normal blood glucose range 4-10 mmol/L, n=6
Source text: The FreeStyle Libre Pro FGM System is a professional glucose monitoring device indicated for detecting trends and tracking patterns and glucose level excursions above or below the desired range, facilitating therapy adjustments in persons with diabetes. Readings from the FreeStyle Libre Pro FGM System are not made available directly to patients in real time. The FreeStyle Libre Pro FGM System aids in the detection of episodes of hyperglycemia and hypoglycemia, facilitating therapy adjustments.
Patients will receive the Freestyle Libre Pro at the site at Visit 1 and Visit 2 in the Safety and Dose Escalation study and will be instructed how to return the FreeStyle Libre to the site after each of the testing period. For the main study patients will receive the Freestyle Libre Pro at the site during Visit 1 (all Treatment arms), Visit 7 (Treatment arm 1), Visit 8 (Treatment arm 2 and 3) and will be instructed how to return the FreeStyle Libre to the site after each of the testing period. However, for Visit 9 (Treatment arm 1) and Visit 10 (Treatment arm 2 and 3) patients will be instructed to come to the site 14 days before the visit to receive the Freestyle Libre and have it activated. The patients will then return the Freestyle Libre at Visit 9 or Visit 10, depending on treatment arm. The timing of the distribution of the glucose monitoring system and assessments is described in Above.
Blood glucose levels for all six patients in the dose escalation part of the study was measured during certain time intervals to determine time spent in, above, and below normal blood glucose range (4-10 mmol/L).

epinephrine = experiment: Hypoglycemic clamp: plasma epinephrine levels; format: in vivo, human; details: for epinephrine levels, Change from baseline, Mean (SD) / epinephrine levels, Change from baseline, Median (Min, Max) / epinephrine levels, Observed value, Mean (SD) / epinephrine levels, Observed value, Median (Min, Max): C-peptide undetectable
Experimental: In order to evaluate the counterregulatory hormone response to hypoglycemia, a hypoglycemic clamp will be performed. The Hypoglycemic Clamp must be performed according to the instructions in the Operations Manual. (Appendix 3)
The patient should: • Come to the study site following an overnight fast (>10 hours), i.e. the patient may not eat but is permitted to drink water • Not have taken the Remygen and, if applicable, Alprazolam dose in the morning • Not take short acting/direct acting insulin within 6 hours before the investigation. • The patient is allowed to take base-insulin day/night before, but not in the morning before the investigation.
Patients with CSII (insulin pump) must continue with their basal dose insulin, but not add bolus dose during the last 6 hours before the investigation.
If a patient has a blood sugar level <4 mmol/L in the morning of the scheduled visit, the patient is allowed to take dextrose tablets and then come to the study site. The patient is allowed to perform the investigation if the blood sugar level is >4 mmol/L.
In the dose-escalation part of the study, the patient will take study drug 30 min prior to start of the hypoglycemic clamp. In the main study, the study drug will instead be taken after finalization of the hypoglycemic clamp. Baseline blood samples will be obtained for glucose, glucagon, epinephrine, norepinephrine, growth hormone and cortisol. The clamp will then be initiated by an intravenous insulin infusion at a rate of 2 mU×kg^−1×min^−1. Glucose 100 mg/ml will then be administered in variable infusion rates to clamp the blood glucose concentration at 5.5 mmol/land then at 2.5 mmol/land kept stable for 30 min. Blood glucose will be evaluated repeatedly in order to find the optimal glucose infusion rate. Blood sampling to determined levels of counterregulatory hormones as described above will be performed at each of these target levels when a stable glucose concentration has been reached. The insulin infusion will thereafter be terminated and the patient is allowed to eat and will be observed until normoglycemia is achieved. If necessary, additional glucose administration will be given to allow blood glucose concentrations to normalize.
Plasma glucose was first lowered to normoglycemic levels (5.5 mmol/L) and hormone levels monitored, and then to hypoglycemic levels (2.5 mmol/L) and hormone levels monitored. Difference was calculated as a measurement of the response to hypoglycemia.

[2] = normal range 4-10 mmol/L, all six patients of dose escalation part
[3] = Visit 5, 200 mg GABA per day, Event 2.5 mmol/L
[4] = Visit 5, 200 mg GABA per day, Event 5.5 mmol/L
[5] = Visit 5, 200 mg GABA per day, Event Baseline
[6] = Visit 5, 200 mg GABA per day, Event Diff 2.5-5.5 mmol/L
[7] = Visit 7, 600 mg GABA per day, Event 2.5 mmol/L
[8] = Visit 7, 600 mg GABA per day, Event 5.5 mmol/L
[9] = Visit 7, 600 mg GABA per day, Event Baseline
[10] = Visit 7, 600 mg GABA per day, Event Diff 2.5-5.5 mmol/L
[11] = Visit 9, 1200 mg GABA per day, Event 2.5 mmol/L
[12] = Visit 9, 1200 mg GABA per day, Event 5.5 mmol/L
[13] = Visit 9, 1200 mg GABA per day, Event Baseline
[14] = Visit 9, 1200 mg GABA per day, Event Diff 2.5-5.5 mmol/L

## NCCCC(=O)O [GABA, Gamma-amino butyric acid]
[1]; Day 3 to 4
  Time above range, Mean: 28.7%
  Time above range, Median: 28.8%
  Time below range, Mean: 14.8%
  Time below range, Median: 14.3%
  Time within range, Mean: 56.6%
  Time within range, Median: 62.0%
[1]; Day 6 to 7
  Time above range, Mean: 37.7%
  Time above range, Median: 36.5%
  Time below range, Mean: 4.8%
  Time below range, Median: 4.0%
  Time within range, Mean: 57.6%
  Time within range, Median: 59.5%
[1]; Day 9
  Time above range, Mean: 39.5%
  Time above range, Median: 50.0%
  Time below range, Mean: 5.5%
  Time below range, Median: 2.5%
  Time within range, Mean: 55.0%
  Time within range, Median: 47.0%
[1]; [2]
  Time above normal blood glucose range, effect of GABA treatment: decreased
  Time below normal blood glucose range, effect of GABA treatment: decreased
  Time in normal blood glucose range, effect of GABA treatment: increased
epinephrine; [3]
  epinephrine levels, Change from baseline, Mean (SD): 0.800 (0.720) nmol/L
  epinephrine levels, Change from baseline, Median (Min, Max): 0.400 (0.30, 2.00) nmol/L
  epinephrine levels, Observed value, Mean (SD): 1.640 (1.014) nmol/L
  epinephrine levels, Observed value, Median (Min, Max): 1.200 (0.50, 2.90) nmol/L
epinephrine; [4]
  epinephrine levels, Change from baseline, Mean (SD): 0.000 (0.000) nmol/L
  epinephrine levels, Change from baseline, Median (Min, Max): 0.000 (0.00, 0.00) nmol/L
  epinephrine levels, Observed value, Mean (SD): 0.150 (0.000) nmol/L
  epinephrine levels, Observed value, Median (Min, Max): 0.150 (0.15, 0.15) nmol/L
epinephrine; [5]
  epinephrine levels, Change from baseline, Mean (SD): 0.000 (0.000) nmol/L
  epinephrine levels, Change from baseline, Median (Min, Max): 0.000 (0.00, 0.00) nmol/L
  epinephrine levels, Observed value, Mean (SD): 0.150 (0.000) nmol/L
  epinephrine levels, Observed value, Median (Min, Max): 0.150 (0.15, 0.15) nmol/L
epinephrine; [6]
  epinephrine levels, Change from baseline, Mean (SD): 0.800 (0.720) nmol/L
  epinephrine levels, Change from baseline, Median (Min, Max): 0.400 (0.30, 2.00) nmol/L
  epinephrine levels, Observed value, Mean (SD): 1.490 (1.014) nmol/L
  epinephrine levels, Observed value, Median (Min, Max): 1.050 (0.35, 2.75) nmol/L
epinephrine; [7]
  epinephrine levels, Change from baseline, Mean (SD): 0.560 (0.585) nmol/L
  epinephrine levels, Change from baseline, Median (Min, Max): 0.800 (−0.40, 1.10) nmol/L
  epinephrine levels, Observed value, Mean (SD): 1.400 (0.579) nmol/L
  epinephrine levels, Observed value, Median (Min, Max): 1.700 (0.60, 2.00) nmol/L
epinephrine; [8]
  epinephrine levels, Change from baseline, Median (Min, Max): 0.000 (0.00, 0.25) nmol/L
  epinephrine levels, Observed value, Median (Min, Max): 0.150 (0.15, 0.40) nmol/L
epinephrine; [9]
  epinephrine levels, Change from baseline, Mean (SD): 0.000 (0.000) nmol/L
  epinephrine levels, Change from baseline, Median (Min, Max): 0.000 (0.00, 0.00) nmol/L
  epinephrine levels, Observed value, Mean (SD): 0.150 (0.000) nmol/L
  epinephrine levels, Observed value, Median (Min, Max): 0.150 (0.15, 0.15) nmol/L
epinephrine; [10]
  epinephrine levels, Change from baseline, Mean (SD): 0.510 (0.564) nmol/L
  epinephrine levels, Change from baseline, Median (Min, Max): 0.600 (−0.40, 1.10) nmol/L
  epinephrine levels, Observed value, Mean (SD): 1.200 (0.630) nmol/L
epinephrine; [11]
  epinephrine levels, Change from baseline, Mean (SD): 0.670 (0.709) nmol/L
  epinephrine levels, Change from baseline, Median (Min, Max): 0.500 (0.00, 1.70) nmol/L
  epinephrine levels, Observed value, Mean (SD): 1.510 (1.070) nmol/L
  epinephrine levels, Observed value, Median (Min, Max): 1.200 (0.15, 2.60) nmol/L
epinephrine; [12]
  epinephrine levels, Change from baseline, Mean (SD): 0.000 (0.000) nmol/L
  epinephrine levels, Change from baseline, Median (Min, Max): 0.000 (0.00, 0.00) nmol/L
  epinephrine levels, Observed value, Mean (SD): 0.150 (0.000) nmol/L
  epinephrine levels, Observed value, Median (Min, Max): 0.150 (0.15, 0.15) nmol/L
epinephrine; [13]
  epinephrine levels, Change from baseline, Mean (SD): 0.000 (0.000) nmol/L
  epinephrine levels, Change from baseline, Median (Min, Max): 0.000 (0.00, 0.00) nmol/L
  epinephrine levels, Observed value, Mean (SD): 0.150 (0.000) nmol/L
  epinephrine levels, Observed value, Median (Min, Max): 0.150 (0.15, 0.15) nmol/L
epinephrine; [14]
  epinephrine levels, Change from baseline, Mean (SD): 0.670 (0.709) nmol/L
  epinephrine levels, Change from baseline, Median (Min, Max): 0.500 (0.00, 1.70) nmol/L
  epinephrine levels, Observed value, Median (Min, Max): 1.050 (0.00, 2.45) nmol/L
epinephrine; change in levels when clamping to 2.5 mmol/L from 5.5 mmol/L
  Counter regulatory response of Epinephrine, effect of GABA treatment: increased
